{
  "source": "patent US20100076023A1",
  "about": "“AMORPHOUS SOLID COMPOSITION CONTAINING A PYRAZOLE-3-CARBOXAMIDE IN AMORPHOUS FORM AND STABILISING CARRIERS” (SANOFI-AVENTIS, priority 2007, published 2010)",
  "key": {"[1]": {"experiment": "comparative tests on intrinsic dissolution", "type": "physicochemical", "conditions": "Acetonitrile/H2O (60/40), 500 ml, 37° C., 75 revolutions/minute, pellets 0.5 cm^2, UV at 246 nm", "description": "A. Tests for evaluating the rate of intrinsic dissolution are carried out with the amorphous rimonabant obtained in Example 9 and the rimonabant in its crystalline form.\nThese tests are carried out under the following conditions: • Solution: Acetonitrile/H2O (60/40) • Volume: 500 ml • Temperature: 37° C. • Rotation speed: 75 revolutions/minute • Surface area of the pellets: 0.5 cm^2 • Compressive force on the pellets: 2 tonnes, 20 seconds • Assay method: UV at 246 nm • Equipment: Vankel “VK700”-Kontron “Uvikon 941+”\nB. Tests are carried out with the amorphous surinabant obtained in Example 10 and the surinabant in its crystalline form. The test conditions are identical to those of the comparative tests carried out for rimonabant (see preceding section A)."}, "[2]": {"experiment": "membrane permeability on the Caco-2 cell model", "type": "in vitro ADME", "conditions": "human; Caco-2 cell model (Gres et al.); read-out: membrane permeability coefficient", "description": "(§1) These compounds are molecules which are relatively water-insoluble; their water-solubilities are respectively 0.1 μg/ml and 1 μg/l at pH=6.5. Furthermore, these compounds have high membrane permeability coefficients: respectively 78×10^−7 cm/s and 96×10^−7 cm/s on the Caco-2 cell model, as described by M. G. Gres et al., in Pharmaceutical Research, 1998, 15(5), 726-733."}, "[3]": {"experiment": "water-solubility at pH 6.5", "type": "physicochemical", "description": "as §1"}, "[4]": {"experiment": "stability under stressing conditions (100° C., X-ray powder diffractometry)", "type": "physicochemical", "conditions": "same stressing conditions", "description": "The apparatus used is a Bragg-Brentano-type DT 500 diffractometer from Siemens®. The line used is Kα1 of copper obtained at an accelerating voltage of 30 mA-40 kV. The diffractograms are recorded for angles of between 2° and 40° at the rate of 1°.min^−1 in Bragg 2-theta.\nThe physicochemical stability of the solid solution of powder obtained is determined at 100° C. without a controlled atmosphere, for 52 days. Several samples are placed in an oven adjusted to the temperature of 100° C. and analyzed at various times by X-ray powder diffractometry.\nThe physicochemical stability of the solid solution of Example 2 is determined at 100° C. without a controlled atmosphere, for 28 days. Several samples are placed in an oven adjusted to the temperature of 100° C., and are analyzed at various times by powder X-ray diffractometry."}},
  "data": [
    {"smiles": "Cc1c(C(=O)NN2CCCCC2)nn(-c2ccc(Cl)cc2Cl)c1-c1ccc(Cl)cc1", "note": "[crystalline rimonabant, N-Piperidino-5-(4-chlorophenyl)-1-(2,4-dichlorophenyl)-4-methylpyrazole-3-carboxamide]", "values": [
      {"measurement": "rate of intrinsic dissolution", "setting": "[1]", "value": 0.7, "unit": "mg.min^−1.cm^−2"}
    ]},
    {"smiles": "CCc1c(C(=O)NN2CCCCC2)nn(-c2ccc(Cl)cc2Cl)c1-c1ccc(Br)cc1", "note": "[surinabant, N-piperidino-5-(4-bromophenyl)-1-(2,4-dichlorophenyl)-4-ethylpyrazole-3-carboxamide]", "values": [
      {"measurement": "Papp", "setting": "[2]", "value": 9.6, "unit": "×10⁻⁶ cm/s"},
      {"measurement": "solubility", "setting": "[3]", "value": 1, "unit": "µg/mL"}
    ]},
    {"smiles": "CCc1c(C(=O)NN2CCCCC2)nn(-c2ccc(Cl)cc2Cl)c1-c1ccc(Br)cc1", "note": "[crystalline surinabant, N-piperidino-5-(4-bromophenyl)-1-(2,4-dichlorophenyl)-4-ethylpyrazole-3-carboxamide]", "values": [
      {"measurement": "rate of intrinsic dissolution", "setting": "[1]", "value": 0.2, "unit": "mg.min^−1.cm^−2"}
    ]},
    {"smiles": "CCc1c(C(=O)NN2CCCCC2)nn(-c2ccc(Cl)cc2Cl)c1-c1ccc(Br)cc1", "note": "[amorphous surinabant, N-piperidino-5-(4-bromophenyl)-1-(2,4-dichlorophenyl)-4-ethylpyrazole-3-carboxamide]", "values": [
      {"measurement": "time in which it becomes completely crystalline", "setting": "[4]", "value": "≤ 24", "unit": "h"},
      {"measurement": "rate of intrinsic dissolution", "setting": "[1]", "value": 0.85, "unit": "mg.min^−1.cm^−2"}
    ]},
    {"smiles": "Cc1c(C(=O)NN2CCCCC2)nn(-c2ccc(Cl)cc2Cl)c1-c1ccc(Cl)cc1", "note": "[amorphous rimonabant, N-Piperidino-5-(4-chlorophenyl)-1-(2,4-dichlorophenyl)-4-methylpyrazole-3-carboxamide]", "values": [
      {"measurement": "rate of intrinsic dissolution", "setting": "[1]", "value": 1.3, "unit": "mg.min^−1.cm^−2"}
    ]},
    {"smiles": "Cc1c(C(=O)NN2CCCCC2)nn(-c2ccc(Cl)cc2Cl)c1-c1ccc(Cl)cc1", "note": "[rimonabant, N-Piperidino-5-(4-chlorophenyl)-1-(2,4-dichlorophenyl)-4-methylpyrazole-3-carboxamide]", "values": [
      {"measurement": "Papp", "setting": "[2]", "value": 7.8, "unit": "×10⁻⁶ cm/s"},
      {"measurement": "solubility", "setting": "[3]", "value": 0.1, "unit": "µg/mL"}
    ]}
  ]
}
